In patent US12053465B2, “KCC2 expression enhancing compounds and uses thereof” (Whitehead Institute for Biomedical Research, priority 2017, dated 2024):
Entries after “also recorded” stand apart in the source; their conditions may differ.

Assays:
[1] = test system: mouse models of autism and depression; details: intraperitoneal (IP) injection; previous work (59, 60); cited from earlier work
Mecp2 mutant mice [2] = assay: Plethysmograph breathing measurement in Mecp2 mutant mouse model of RTT; format: in vivo; details: male Mecp2 mutant mice; daily injection, two weeks; vs DMSO- or EtOH-injected control
Procedure: (§1) We assessed the in vivo efficacy of KEECs by treating RTT disease-related symptoms such as breathing pauses and reduced locomotion (58) in a Mecp2 mutant mouse model of RTT. […] Plethysmograph and locomotion measurements were made in 4-6 week-old male Mecp2 mutant animals as a pre-treatment control time point and were then injected daily with KEECs KW-2449 or Piperine. Injection of the solvent DMSO or ethanol (EtOH) served as vehicle controls (FIG. 15A). The same two behavioral measurements in vehicle or KEEC-injected Mecp2 mutant animals were performed again two weeks after the start of daily injections. Each animal's ‘after injection’ data were compared to the ‘before injection’ level to assess behavioral changes.
Male Mecp2 mutant mice (Mecp2^−/y, e.g. the Bird model) between 4-12 weeks of age were used for the in vivo experiments. Subjects were divided into drug treated KO (Piperine/KW-2449), and vehicle treated KO (EtOH/DMSO) groups. Animals were randomly assigned to treatment arms with approximately equivalent numbers in each group. […]
A full body plethysmograph chamber (EMKA Inc, PA) was used to measure breathing patterns. […] For each test, the subject was left in the chamber for 20 minutes, afterwards its breath pattern was recorded for the next 20 minutes, and the estimated amplitude modulation index (eAMI) was calculated from the breath trace to label breath pauses automatically. […]

[3] = test system: KCC2 expression (KCC2-2A-luciferase reporter); assay: KCC2-2A-luciferase reporter compound screening with RTT KCC2 reporter neurons; format: cell-based, human; details: MECP2-null RTT human KCC2 reporter neurons; LINCS, SMART, ICCB libraries; Luc/CTG normalized to in-plate DMSO; hit = B score >3
Method in brief: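 MECP2-null RTT human neurons carrying a KCC2-2A-luciferase reporter, differentiated 4 weeks, were treated with library compounds at 10 μM for 1–2 weeks at 37 °C. Lysate luciferase was normalized to CellTiter-Glo ATP per well and expressed as fold change over in-plate DMSO. Hits were called at B score >3.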

Mecp2 mutant mice [4] = assay: Locomotion (infrared beam break) in Mecp2 mutant mouse model of RTT; format: in vivo
Procedure: as §1
Male Mecp2 mutant mice (Mecp2^−/y, e.g. the Bird model) between 4-12 weeks of age were used for the in vivo experiments. Subjects were divided into drug treated KO (Piperine/KW-2449), and vehicle treated KO (EtOH/DMSO) groups. Animals were randomly assigned to treatment arms with approximately equivalent numbers in each group.
KW-2449 stock solution was prepared at 10 mg/ml with DMSO, and Piperine stock solution at 30 mg/ml with EtOH. 20 μl of stock solution were diluted with 1 ml saline for injection. Daily drug treatments or sham injections were performed on both groups between P28 and P56, for at least two weeks, as Mecp2 mutant mice start to show symptoms around P28 and die around P60. Both following tests were performed on both groups of mice before the injections start, and repeated at the end of the injection period. The animals' performance was then compared before and after drug/vehicle injections.
To measure the subjects' nighttime locomotion, a 1-D infrared light-beam frame (ActiMot, TSE-systems, MO) was used. Animals were single-housed in new cages with the same setup as their home cages. The infrared monitor was set up for each cage and the beam crossings was recorded between 17:00 and 9:00 the next morning, where the lights were turned off between 19:00 and 7:00. The average beam crossing frequency during the night (21:00-5:00) was used as the subject's activity score, and the average beam crossing frequency after lights on (7:00-9:00) was used as the subject's day time activity score. The time periods where the mouse is stationary for >5 minutes are discarded to reduce artifact caused by the mouse sleeping. As we look at both day-time and night-time locomotion, a bonferroni correction with repeated comparison number of 2 was applied. All behavioral analyses were performed by experimenters who were blind to the treatment condition.

KCC2 expression = assay: Western blot of KCC2 in cultured human RTT neurons; format: cell-based; details: Western blot; for KCC2 expression: cultured human RTT neurons
Method in brief: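 Cultured neurons lysed in RIPA buffer (pH 7.6) with sonication; immunoblotted on PVDF with KCC2 antibody (1:2000) overnight at 4° C., HRP secondary.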

O=C(/C=C/C=C/c1ccc2c(c1)OCO2)N1CCCCC1 [Piperine, (2E,4E)-5-(Benzo[d][1,3]dioxol-5-yl)-1-(piperidin-1-yl)penta-2,4-dien-1-one]
symptoms in mouse models of autism and depression [1]: improved symptoms
frequency of breathing pauses (Mecp2 mutant mice [2]): significantly reduced the frequency of breathing pauses
B Score [3]: 4.69
day-time locomotion (Mecp2 mutant mice [4]; Mecp2 mutant animals, vs EtOH control): significantly increased day-time locomotion
locomotive activities (Mecp2 mutant mice [4]; male Mecp2 mutant mice, daily injection, two weeks, vs DMSO- or EtOH-injected control): increased locomotive activities
concentration at which treatment significantly increases KCC2 expression (KCC2 expression; cultured ESC-derived human RTT neurons): 10 µM
KCC2 expression (KCC2 expression): induced KCC2 expression in a dose-dependent manner; also recorded: significant increase in KCC2 expression
KCC2 expression (KCC2 expression; listed as piperine): increase KCC2 expression
